Results published in PMC8640678 (Journal of Pesticide Science, 2021).

Columns and labels:
HcbA3C-His [1] = test: NADH oxidation at […] nm, steady-state fit; format: biochemical, Nocardioides sp. PD653; conditions: 1–8 µM FMN, 10–120 µM NADH, 25 nM enzyme; ping-pong; cited from earlier work
HcbB3 with HcbB2 = target: T1, HcbB3 with HcbB2 (Nocardioides sp. PD653, UniProt A0A1V1W0L1); test: PCP dissipation by recombinant E. coli cells; format: cell-based; conditions: co-expressed HcbB2; whole cells
T1 sequence (A0A1V1W0L1 1-506): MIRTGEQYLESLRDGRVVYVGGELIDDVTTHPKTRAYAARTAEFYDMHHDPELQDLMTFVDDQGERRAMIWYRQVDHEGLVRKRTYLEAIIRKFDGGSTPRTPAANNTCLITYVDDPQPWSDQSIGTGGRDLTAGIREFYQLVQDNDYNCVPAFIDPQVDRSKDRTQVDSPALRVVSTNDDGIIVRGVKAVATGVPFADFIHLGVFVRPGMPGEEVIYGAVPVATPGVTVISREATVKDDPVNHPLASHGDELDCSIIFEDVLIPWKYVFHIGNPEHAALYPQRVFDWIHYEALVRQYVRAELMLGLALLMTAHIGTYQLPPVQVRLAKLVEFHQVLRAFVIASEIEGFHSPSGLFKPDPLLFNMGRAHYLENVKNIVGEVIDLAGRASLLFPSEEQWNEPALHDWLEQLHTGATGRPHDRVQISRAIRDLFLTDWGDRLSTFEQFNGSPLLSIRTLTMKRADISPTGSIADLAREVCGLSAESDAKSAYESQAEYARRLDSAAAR

HcbA3C-His [2] = test: spectrofluorometric titration; format: binding, Nocardioides sp. PD653; conditions: oxidized FMN; no NADH stated; cited from earlier work

SMILES | Km (HcbA3C-His [1]) [µM] | PCP dissipation by recombinant E. coli cells (HcbB3 with HcbB2) | Kd (HcbA3C-His [2]) [nM]
NC(=O)C1=CN([C@@H]2O[C@H](COP(=O)(O)OP(=O)(O)OC[C@H]3O[C@@H](n4cnc5c(N)ncnc54)[C@H](O)[C@@H]3O)[C@@H](O)[C@H]2O)C=CC1 [NADH] | 51.7 ± 11.6 |  | 
Oc1c(Cl)c(Cl)c(Cl)c(Cl)c1Cl [PCP] |  | co-expression of hcbB1 and hcbB3 or hcbB2 and hcbB3 led to significant PCP dissipation activity | 
Cc1cc2nc3c(=O)[nH]c(=O)nc-3n(C[C@H](O)[C@H](O)[C@H](O)COP(=O)(O)O)c2cc1C [FMN] | 4.43 ± 0.69 |  | 750 ± 170
